{"source": "patent US9862690B2", "about": "“Treatment of pulmonary and other conditions” (University of Pittsburgh—of the Commonwealth System of …, priority 2013, dated 2018)", "key": {"[1]": {"assay": "Nebulization of PB141: aerosol droplet size by Andersen cascade impactor", "format": "physicochemical", "conditions": "dissolved in water or PBS; micropump nebulizer, 10 L of air/min", "procedure": "PB141 was dissolved in water or different concentrations of PBS and the solutions were aerosolized using a micropump nebulizer (Buxco Research Systems, Wilmington, N.C.) flowing at 10 L of air/min. Aerosol droplet size was measured with an Andersen cascade impactor. (A) Distribution of PB141 aerosol droplet sizes. (B) The concentration of PB141 during a 30 min nebulization period was measured by collecting samples during nebulization and analyzing by spectrophotometer in two independent experiments.\nPB141 was dissolved in water or different concentrations of PBS and aerosols were generated using a micropump nebulizer (Buxco Research Systems, Wilmington, N.C.) flowing at 10 L of air/min. Aerosol droplet size was measured with an Andersen cascade impactor. The concentration of PB141 during a 30-min nebulization period was measured by collecting samples during nebulization and analyzing them by spectrophotometer in […]. […] Nebulization was optimal for a solution of PB141 in 2% saline, although a formulation in pure water was also effective."}, "[2]": {"target": "T1, p65 subunit of NF-κB (Mus musculus, UniProt Q04207)", "T1 construct": "Following sacrifice, nuclear proteins were isolated from lungs; from tissue; host or cells: mouse lung (nuclear proteins)", "T1 sequence (Q04207 whole entry)": "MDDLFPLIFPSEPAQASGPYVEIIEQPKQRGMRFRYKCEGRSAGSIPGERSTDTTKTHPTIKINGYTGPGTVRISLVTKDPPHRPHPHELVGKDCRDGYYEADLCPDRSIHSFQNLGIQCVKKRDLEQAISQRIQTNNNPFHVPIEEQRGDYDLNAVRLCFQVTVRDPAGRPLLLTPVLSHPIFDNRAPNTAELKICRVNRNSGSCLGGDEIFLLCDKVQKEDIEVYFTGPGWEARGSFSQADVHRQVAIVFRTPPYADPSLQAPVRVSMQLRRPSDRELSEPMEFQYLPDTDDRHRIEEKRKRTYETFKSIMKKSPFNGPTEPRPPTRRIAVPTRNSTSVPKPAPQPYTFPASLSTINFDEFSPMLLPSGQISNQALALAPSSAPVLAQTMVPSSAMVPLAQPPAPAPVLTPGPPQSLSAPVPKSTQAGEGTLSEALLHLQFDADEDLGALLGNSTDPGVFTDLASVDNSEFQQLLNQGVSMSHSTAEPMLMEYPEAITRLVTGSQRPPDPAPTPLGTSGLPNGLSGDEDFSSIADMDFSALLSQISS", "assay": "LPS-induced lung NF-κB p65 DNA-binding activity after nebulized delivery", "format": "in vivo, mice", "conditions": "i.t. LPS; different concentrations nebulized 30 min later for 30 min", "procedure": "PB141 was delivered to mice by nebulization at doses of 25 or 250 mg/kg for up to 30 days. (A) Lungs were excised, sectioned, and examined histologically for evidence of inflammation or injury. (B) Potential kidney and liver injury were assessed by serum levels of creatinine, AST, and ALT. […] Acute lung injury was induced in mice by intratracheal administration of LPS. Thirty min later PBS or varying concentrations of PB141 were delivered into cage air by nebulization. Following sacrifice, nuclear proteins were isolated from lungs and used to determine DNA-binding activity of the p65 subunit of the pro-inflammatory transcription factor NF-κB.\nIn other experiments, acute lung injury was induced by intratracheal (i.t.) injection of endotoxin [lipopolysaccharide (LPS)] prepared from Escherichia coli O111:B6 (Sigma-Aldrich; St. Louis, Mo.). Thirty minutes later different concentrations of PB141 in isotonic saline were nebulized and delivered into cage air for 30 min using a micropump nebulizer (Buxco Research Systems, Wilmington, N.C.) fitted at the chamber inlet and flowing at 10 L of air/min. PBS was similarly delivered as a control. Nuclear proteins were prepared from lung samples and their concentrations were determined and used to quantify DNA-binding activity of the p65 subunit of the pro-inflammatory transcription factor NF-κB."}, "[3]": {"system": "alveolar macrophages", "assay": "Gene expression in alveolar macrophages isolated from BAL fluid of treated mice (real-time PCR)", "format": "in vivo", "conditions": "mice given LPS then 25 mg/kg nebulized", "procedure": "Induction of ALI by intratracheal injection of LPS (50 μg) was followed 30 min later by nebulization of PB141 (25 mg/kg) or vehicle (saline) and delivery to cage air via a micropump nebulizer. After another 5.5 h BAL fluid was obtained. Alveolar macrophages were isolated from the BAL fluid and plated in DMEM+10% FBS. After 1 h, RNA was isolated and expression of the indicated genes was determined using real-time PCR; results were normalized to values for the housekeeping genes glyceraldehyde-3-phosphate dehydrogenase (GAPDH) and […]. Data are representative of one of two independent experiments with n=6-8 mice per group; **P<0.01; ***P<0.001.\nFor additional in vitro studies, after the treatment described above alveolar macrophages were isolated from the BAL fluid and plated in DMEM+10% FBS. After 1 h, RNA was isolated and expression of the different genes was determined using real-time PCR; results were normalized to values for the housekeeping genes glyceraldehyde-3-phosphate dehydrogenase (GAPDH) and […]. […] In other experiments, PMNs were isolated from peripheral blood of endotoxin-treated mice by hetastarch exchange transfusion. PMN adhesion was assessed with the Cytoselect Leukocyte-Endothelium Adhesion Assay kit (CBA-210; Cell Biolabs) and transendothelial PMN migration was determined with the Cytoselect Leukocyte Transmigration Assay kit (CBA-212; Cell Biolabs)."}, "[4]": {"system": "cigarette smoke-induced COPD in mice", "assay": "Cigarette smoke-induced COPD model", "format": "in vivo", "procedure": "COPD was induced by exposure of mice to whole-body cigarette smoke for 5 days, at the end of which the mice were euthanized and cells and levels of mediators were obtained from the pulmonary airspace by bronchoalveolar lavage. Some mice received PB141 (25 mg/kg) simultaneously with the cigarette smoke (A-I).\nMice were exposed 5 days per week for 4 wk (sub-acute exposure) to the smoke of five cigarettes (Reference Cigarette 2R4F without filter; University of Kentucky) administered four times per day with a 30-min smoke-free interval between exposures. An optimal smoke:air ratio of 1:6 was obtained. In preventive studies, tobacco smoke exposure was paralleled by delivery of a nebulized solution containing PB141 (25 mg/kg) or vehicle (saline) via a micropump nebulizer (Buxco Research Systems, Wilmington, N.C.). At the conclusion of smoke exposure the extent of lung inflammation was assessed by counting polymorphonuclear neutrophils (PMNs) in bronchoalveolar lavage fluid and measuring lung vascular permeability, edema, pulmonary lymphoid aggregation, and generation of inflammatory chemokines and cytokines. Emphysema was assessed by destruction of alveolar walls, quantitated as the destructive index (DI), and by enlargement of alveolar spaces, quantitated by the mean linear intercept (Lm). Airway remodeling was assessed by staining collagen in the airway wall and by measuring the amount of fibronectin. Lung histology sections were assessed for inflammation and injury following hematoxylin and eosin (H&E) staining. Lymphoid aggregates were quantification by morphometric analysis."}, "[5]": {"conditions": "25 mg/kg nebulized in parallel with smoke exposure"}}}
{"smiles": "CC(=O)N[C@@H](CSC(CC(=O)CC(SC[C@H](NC(C)=O)C(=O)O)c1cnccn1)c1cnccn1)C(=O)O", "note": "(some centres unmarked) [PB141]", "values": [{"measurement": "Aerosol droplet size", "setting": "[1]", "value": "1-2 μm"}, {"measurement": "LPS-induced upregulation of NF-κB in lung", "setting": "[2]", "value": "inhibited the LPS-induced upregulation of NF-κB in a concentration-dependent manner"}, {"measurement": "Transcription of antioxidant genes in alveolar macrophages", "setting": "[3]", "value": "increased"}, {"measurement": "Transcription of inflammatory genes in alveolar macrophages", "setting": "[3]", "value": "decreased"}, {"measurement": "Airway wall remodeling", "setting": "[4]; [5]", "value": "significantly decreased"}, {"measurement": "Cigarette smoke-induced increase of inflammatory cells in the lungs", "setting": "[4]; [5]", "value": "significantly decreased"}, {"measurement": "Development of pulmonary hypertension", "setting": "[4]; [5]", "value": "significantly decreased"}, {"measurement": "Emphysema", "setting": "[4]; [5]", "value": "significantly decreased"}, {"measurement": "Generation of inflammatory chemokines and cytokines", "setting": "[4]; [5]", "value": "significantly decreased"}, {"measurement": "Pulmonary lymphoid aggregates", "setting": "[4]; [5]", "value": "significantly decreased"}, {"measurement": "Phagocytic ability of alveolar macrophages", "setting": "[4]; administration by nebulization", "value": "improved"}]}
